Test results as given in patent US9260473B2, “Bivalent multifunctional ligands targeting Aβ oligomers as treatment for Alzheimer's disease” (Virginia Commonwealth University, priority 2010, dated 2016).

Experiments:
MC65 cells = experiment: Cytotoxicity assay in MC65 cells (MTS, +TC/−TC); format: cell-based, human
Source text: Protective effects of 14 on AβOs-induced cytotoxicity in MC65 cells and differentiated human neuroblastoma SH-SY5Y cells. […] To further verify whether 14 can protect cells from extracellular AβOs-induced cytotoxicity, all trans-retinoic acid differentiated human SH-SY5Y cells were employed. […] This may further indicate that while both 1 and 14 can bind to AβOs, CM/LR anchorage of 14 can increase its accessibility to intracellular target AβOs. Since CM/LR are crucial for many aspects of cell signaling and functions, 14 was further evaluated for its potential cytotoxicity in mouse spleen and natural killer (NK) cells.
Cytotoxicity assay in MC65 cells. MC65 cells were seeded in 96-well plates (4×10^4 cells/well) at 37° C., 5% CO2 for 24 hrs. The medium was removed and washed with PBS twice. Opti-MEM and test compounds were added under +TC and −TC conditions. The plates were incubated at 37° C., 5% CO2 for 72 hrs, then 20 uL CellTiter 96 AQueous One Solution (Promega, Madison, Wis.) were added to each well and the plates were incubated at 37° C., 5% CO2 for 2-4 hrs. The plates were read at 490 nm using FlexStation III plate reader (Molecular Devices). The blank with only test compounds in Opti-MEM was set up as background control for all of the tested concentrations. Each data point was averaged from six replicates and the experiments were independently repeated at least three times.

SH-SY5Y cells = experiment: Cytotoxicity assay in differentiated SH-SY5Y cells treated with AβOs; format: cell-based, human; settings: AβOs 1 μM
Method: Cytotoxicity assay in differentiated SH-SY5Y cells. SH-SY5Y cells were plated at 10,000 cells/well in type 1 collagen coated 96-well plates (Invitrogen) and were differentiated in Opti-MEM supplemented with 2% B-27 (Invitrogen) and 10 μM all-trans-retinoic acid for 7 days. The medium was removed and replaced with fresh maintenance medium. Freshly prepared Aβ42 oligomers in Ham's F-12 medium (1 μM) was added to cells for 48 hrs at 37° C. with or without test compounds. After treatment, 20 uL CellTiter 96 AQueous One Solution (Promega, Madison, Wis.) were added to each well and the plates were incubated at 37° C., 5% CO2 for 2-4 hrs. The plates were read at 490 nm in FlexStation III plate reader (Molecular Devices). Each data point was averaged from six replicates and the experiments were independently repeated at least three times.

AβOs [1] = experiment: Immunocytochemistry assay of AβOs in MC65 cells (A11 antibody); format: cell-based, human; settings: 10 μM, 24 hrs after removal of TC
Method: MC65 cells were treated with the indicated compounds (10 μM) immediately after the removal of TC. After 24 hrs, the cells were fixed and immunofluorescently stained for AβOs, CM/LR, and nucleus and imaged with a Leica TCS-SP2 AOBS confocal laser scanning microscope. Five areas were examined.
Immunocytochemistry assay. MC65 cells were plated onto Lab-Tee chamber slides (1×10^4 cells/well). After 24 hrs incubation at 37° C. and 5% CO2, Opti-MEM was added (with or without TC) and followed by test compounds. MC65 cells were incubated for 24 hrs. MC65 cells were rinsed 3× with PBS and incubated with Alexa 488-conjugated CTX-B (10 ug/mL) for 15 min on ice. After rinsing once with ice-cold PBS, cells were fixed for 30 min with 4% paraformaldehyde. MC65 cells were permeabilized for 30 min with 0.1% Triton X 100. Then MC65 cells were stained with A11 rabbit antibody followed by anti-rabbit Alexa 568 (1:500). Finally MC65 cells were treated with DAPI (5 ug/mL) and mounted with Vectashield Mounting Media. Cell fluorescence was analyzed by a Leica TCS-SP2 AOBS confocal laser scanning microscope equipped with blue diode, Argon, and 3 HeNe (lasers as well as a spectrophotometer based detection system with variable detector windows) using excitation lines at 355 nm, 488 nm, and 568 nm for DAPI, Alexa 488-conjugated CTX-B, and Alexa Fluor 568 donkey anti-rabbit IgG. […]

[2] = tested on: intracellular oxidative stress; experiment: DCFH-DA antioxidation assay in MC65 cells; format: cell-based, human; settings: −TC, 24 hrs
Method: DCFH-DA antioxidation assay. MC65 cells were seeded in 96-well plates (4×10^4 cells/well). After incubation at 37° C., 5% CO2 for 24 hrs, the medium was removed and washed with PBS. Opti-MEM and test compounds were added (+TC, −TC, and blank with only test compounds). MC65 cells were incubated at 37° C., 5% CO2 for 24 hrs. Then DCFH-DA in Opti-MEM was added to each well (final DCFH-DA concentration was 25 uM) and incubate at 37° C., 5% CO2 for 30 min. The medium was removed and replaced with fresh opti-MEM and plates were read for fluorescence intensity at 485 nm (excitation)/530 nm (emission) using FlexStation III plate reader (Molecular Devices).

AβOs [3] = experiment: Western blot assay of AβOs formation in MC65 cells (6E10 antibody); format: cell-based, human; settings: 10 μM, 24 hrs after removal of TC
Source text: Inhibition of AβOs production by designed BMAOIs. […] The whole cell assay is a composite of not only Aβ oligomerization inhibition but also permeability, stability and other factors will validate the accessibility and function of our BMAOIs. MC65 is a human neuroblastoma cell line that conditionally expresses C99, the C-terminus fragment of APP using tetracycline (TC) as transgene suppressor.^38 Upon removal of TC, these cells can produce intracellular Aβ aggregates including small AβOs. […] All BMAOIs were first evaluated at a single concentration of 10 μM. Candidate compounds with inhibitory activities at this concentration were further evaluated in a dose-dependent manner in the following assays. […]
Western blot assay. […] Pellet was lysed by sonication in 1× lysis buffer (62.5 mM Tris base, pH6.8, 2% SDS, 50 mM DTT, 10% glycerol, 0.1% bromphenol blue, and […] each chymostatin, leupeptin, aprotinin, pepstatin, and soybean trypsin inhibitor) and protein level was determined using Coomassie Protein Assay Reagent (Pierce, Rockford, Ill.). […]

Aβ42 = molecular target: T1, Aβ42 (Homo sapiens, UniProt P05067); experiment: Aβ42 oligomerization inhibition assay (Western blot); format: biochemical; settings: Aβ42 5 μM, compound 20 μM, 4 hrs at 37° C.
T1 construct: Aβ42 was obtained from American Peptide, Inc. (Sunnyvale, Calif.); purchased American Peptide, Inc. (Sunnyvale, Calif.)
T1 sequence (P05067 672-713 limits assumed): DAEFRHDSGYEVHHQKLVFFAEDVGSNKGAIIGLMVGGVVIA
Method: In order to confirm 14 can bind to AβOs, the inhibition of Aβ42 oligomerization was performed and assessed using Western blot analysis as described in literature^29 in order to investigate binding interactions of 14 with Aβ42 and the CM/LR of MC65 cells. Briefly, Aβ42 (5 μM) was incubated with or without compounds (20 μM), then samples were analyzed by Western blot using 6E10 antibody.
Aβ42 oligomerization inhibition assay. An aliquot of Aβ42 (0.045 mg) was dissolved in 20 μL of DMSO and diluted in Ham's F-12 media without phenol red (Caisson's Laboratory, Inc., Utah). […] After incubation, the samples (50 μL) were spun down at 14,000×g for 10 min. The supernatant (20 μL) was mixed with an equal part of Tricine sample buffer without reducing agents (Bio-Rad). The unaggregated Aβ42 control was not incubated at 37° C., and mixed with sample buffer (no centrifuging) and stored at −80° C. before it was electrophoresed. Samples (25 μL) were electrophoresed on a 10-20% Tris-Tricine gel, transferred to PVDF membrane, and blocked with 10% nonfat milk in PBS for 30 min. […] The proteins were visualized by Western Blot Chemiluminescence Reagent (NEN Life Science Products, Boston, Mass.).

SMILES: CC(=O)N[C@@H](CS)C(=O)O [NAC, N-acetylcysteine]
- rescue of MC65 cells from AβOs-induced cytotoxicity (MC65 cells; −TC): 48%

SMILES: COc1cc(/C=C/C(=O)CC(=O)/C=C/c2ccc(O)c(OC)c2)ccc1O [compound 1, curcumin, reference compound]
- protection of SH-SY5Y cell viability from AβOs (SH-SY5Y cells; 48 hrs, 16 μM): not at 16 μM
- protection of SH-SY5Y cell viability from AβOs (SH-SY5Y cells; 48 hrs, 2, 4, and 8 μM): moderate protective activities
- toxic effects on MC65 cell viability in the presence of TC (MC65 cells; +TC, tested concentrations, 72 hrs, MTS): no toxic effects
- protective effects on MC65 cell viability upon removal of TC (MC65 cells; −TC, 72 hrs, MTS): minimal protective effects
- formation of AβOs (A11 immunocytochemistry) (AβOs [1]): slightly suppressed
- suppression of intracellular oxidative stress (DCFH-DA fluorescence) [2]: suppressed the intracellular oxidative stress in a dose-depndent manner
- inhibition of the formation of AβOs (Western blot) (AβOs [3]): did not exhibit inhibition
- inhibition of oligomerization of Aβ42 (Aβ42): inhibited the oligomerization of Aβ42

SMILES: Cc1c(C)c2c(c(C)c1O)CCC(C)(C(=O)O)O2 (stereo not shown) [trolox, 6-hydroxy-2,5,7,8-tetramethyl chroman-2-carboxylic acid]
- rescue of MC65 cells from AβOs-induced cytotoxicity (MC65 cells; −TC, 32 μM): completely rescued
